Experimental findings from patent publication US5436260A, “Angiotensin II receptor antagonists” (Warner-Lambert Company, priority 1994, dated 1995) are described below.

pIC50: −log10 of the molar value. Counter-ions that a name gives are not always drawn.

This assay concerns the target T1, AT1 receptor (Rattus norvegicus, UniProt P25095).
T1 construct: rat liver membranes; from tissue; host or cells: rat liver membranes
T1 sequence (P25095 1-359): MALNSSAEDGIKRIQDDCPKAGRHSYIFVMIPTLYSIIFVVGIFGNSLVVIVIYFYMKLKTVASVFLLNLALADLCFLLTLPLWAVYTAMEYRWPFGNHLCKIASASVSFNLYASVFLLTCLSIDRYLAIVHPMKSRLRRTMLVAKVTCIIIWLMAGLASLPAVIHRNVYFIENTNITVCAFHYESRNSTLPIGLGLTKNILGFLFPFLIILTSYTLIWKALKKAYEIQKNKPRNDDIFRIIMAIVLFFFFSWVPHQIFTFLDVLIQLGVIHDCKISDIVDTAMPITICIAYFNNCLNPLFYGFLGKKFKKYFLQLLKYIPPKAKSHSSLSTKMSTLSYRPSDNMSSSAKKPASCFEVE
In words: [^3 H]angiotensin II binding to rat liver membranes (AT1 test). Conditions: inhibition of [^3 H]angiotensin II binding. The method, then:
The compounds of Formula I or Ia are antagonists of angiotensin II. Dudley, D. T., et al, Molecular Pharmacology 1990;38:370-377 reported the existence of 2 subclasses of angiotensin II binding sites in rabbit adrenal gland and uterus and in the rat liver which differ in their tissue distribution and affinity for various peptide and nonpeptide ligands. Thus, the compounds of Formula I or Ia were tested for their ability to inhibit [^3 H]angiotensin II binding to rat liver membranes (AT1 test) according to the methods described by Dudley, D. T., et al, Molecular Pharmacology 1990;38:370-7. […] It is well established that compounds which antagonize the effect of angiotensin II at the AT1 receptor have value for treatment of hypertension and heart failure.

Consider `CCCCc1ncc(CC2C(=O)NC(=O)N2CCCC)n1Cc1ccc(C(=O)O)cc1` (stereo not drawn) [Example 65, 4-[[2-Butyl-5-[(3-butyl-2,5-dioxo-4-imidazolidinyl)methyl]-1H-imidazol-1-yl]methyl]benzoic acid], for which the pIC50 (usually the negative decadic logarithm of the IC50, by convention in mol/L) was 6.70.

Regarding `CCCCc1ncc(/C=C2/C(=O)N(CCCC)C(=O)N2Cc2csc(C)n2)n1Cc1ccc(C(=O)OC)cc1` [Example 68, Methyl Z-4-[[2-butyl-5-[[1-butyl-3-[(2-methyl-4-thiazolyl)methyl]-2,5-dioxo-4-imidazolidinylidene]methyl]-1H-imidazol-1-yl]methyl]benzoate dihydrochloride], the pIC50 was 8.38.

On to `CCCCc1ncc(/C=C2/C(=O)N(CCCC)C(=O)N2Cc2c(C)noc2C)n1Cc1ccc(C(=O)OC)cc1` [Example 69, Methyl Z-4-[[2-butyl-5-[[1-butyl-3-[(3,5-dimethyl-4-isoxazolyl)methyl]-2,5-dioxo-4-imidazolidinylidene]methyl]-1H-imidazol-1-yl]methyl]benzoate monohydrochloride], for which the pIC50 was 6.70.

`CCCCc1ncc(/C=C2/C(=O)NC(=O)N2CCCC)n1Cc1ccc(NS(=O)(=O)C(F)(F)F)cc1` [Example 71a, Z-N-[4-[[2-butyl-5-[(3-butyl-2,5-dioxo-4-imidazolidinylidene)methyl]-1H-imidazol-1-1yl]methyl]phenyl]-1,1,1,-trifluoromethanesulfonamide] had a pIC50 of 8.49.

Consider `CCCCc1ncc(/C=C2\C(=O)NC(=O)N2CCCC)n1Cc1ccc(NS(=O)(=O)C(F)(F)F)cc1` [Example 71b, E-N-[4-[[2-butyl-5-[(3-butyl-2,5-dioxo-4-imidazolidinylidene)methyl]-1H-imidazol-1-yl]methyl]phenyl]-1,1,1-trifluoromethanesulfonamide], for which the pIC50 is 8.38.

Regarding `CCCCc1ncc(/C=C2/C(=O)N(CCCC)C(=O)N2Cc2sccc2C)n1Cc1ccc(C(=O)OC)cc1` [Example 72, Methyl Z-4-[[2-butyl-5-[[1-butyl-3-[(3-methyl-2-thienyl)methyl]-2,5-dioxo-4-imidazolidinylidene]methyl]-1H-imidazol-1-yl]methyl]benzoate hydrochloride], the pIC50 is 7.62.

Take `CCCCc1ncc(/C=C2/C(=O)N(CCCC)C(=O)N2Cc2ccc(C)s2)n1Cc1ccc(C(=O)O)cc1` [Example 74, Z-4-[[2-butyl-5-[[1-butyl-3-[(5-methyl-2-thienyl)methyl]-2,5-dioxo-4imidazolidinylidene]methyl]-1H-imidazol-1-yl]methyl]benzoic acid]: the pIC50 was 9.22.

With `CCCCc1ncc(/C=C2/C(=O)N(CCCC)C(=O)N2Cc2cccs2)n1Cc1ccc(C(=O)O)cc1` [Example 75, Z-4-[[2-butyl-5-[[1-butyl-2,5-dioxo-3-(2-thienylmethyl)-4-imidazolidinylidene]methyl]-1H-imidazol-1-yl]methyl]benzoic acid], the pIC50 is 9.19.

`CCCCc1ncc(/C=C2/C(=O)NC(=O)N2CCCC)n1Cc1ccc(-c2nn[nH]n2)cc1` [Example 76a, Z-1-Butyl-5-[[2-butyl-3-[[4-(1H-tetrazol-5-yl)phenyl]methyl]-3H-imidazol-4-yl]methylene]-2,4-imidazolidinedione] showed a pIC50 of 8.47. This pIC50 is 0.72 log units lower than that of the molecule before.

Molecule `CCCCc1ncc(/C=C2\C(=O)NC(=O)N2CCCC)n1Cc1ccc(-c2nn[nH]n2)cc1` [Example 76b, E-1-Butyl-5-[[2-butyl-3-[[4-(1H-tetrazol-5-yl)phenyl]methyl]-3H-imidazol-4-yl]methylene]-2,4-imidazolidinedione] had a pIC50 of 8.61.

`CCCCc1ncc(/C=C2/C(=O)N(CCCC)C(=O)N2Cc2ccc(Br)s2)n1Cc1ccc(C(=O)OC)cc1` [Example 77, Methyl Z-4-[[5-[[3-[(5-bromo-2-thienyl)methyl]-1-butyl-2,5-dioxo-4-imidazolidinylidene]methyl]-2-butyl-1H-imidazol-1-yl]methyl]benzoate monohydrochloride] showed a pIC50 of 7.75.

Turning to `CCCCc1ncc(/C=C2/C(=O)N(CCCC)C(=O)N2Cc2cc(Br)cs2)n1Cc1ccc(C(=O)OC)cc1` [Example 78, Methyl Z-4-[[5-[[3-[(4-bromo-2-thienyl)methyl]-1-butyl-2,5-dioxo-4-imidazolidinylidene]methyl]-2-butyl-1H-imidazol-1-yl]methyl]benzoate monohydrochloride], the pIC50 was 7.66.

Consider `CCCCc1ncc(/C=C2/C(=O)N(CCCC)C(=O)N2CCc2cccs2)n1Cc1ccc(C(=O)OC)cc1` [Example 79, Methyl Z-4-[[2-butyl-5-[[1-butyl-2,5-dioxo-3-[2(2-thienyl)ethyl]-4-imidazolidinylidene]methyl]-1H-imidazol-1-yl]methyl]benzoate monohydrochloride], for which the pIC50 was 7.84.

For the molecule `CCCCc1ncc(/C=C2/C(=O)N(CCCC)C(=O)N2CCc2ccsc2)n1Cc1ccc(C(=O)OC)cc1` [Example 80, Methyl Z-4-[[2-butyl-5-[[1-butyl-2,5-dioxo-3-[2-(3-thienyl)ethyl]-4-imidazolidinylidene]methyl]-1H-imidazol-1-yl]methyl]benzoate monohydrochloride], the pIC50 was 7.84.

`CCCCc1ncc(/C=C2/C(=O)N(CCCC)C(=O)N2Cc2csc(Br)c2)n1Cc1ccc(C(=O)OC)cc1` [Example 81, Methyl Z-4-[[5-[[3-[(5-bromo-3-thienyl)methyl]-1-butyl-2,5-dioxo-4-imidazolidinylidene]methyl]-2-butyl-1H-imidazol-1-yl]methyl]benzoate monohydrochloride] gave a pIC50 of 7.60. Against the preceding molecule, the pIC50 is 0.24 log units lower.

Consider `CCCCc1ncc(/C=C2\NC(=O)N(CCCC)C2=O)n1Cc1ccc(C2(C(=O)OC)CCCC2)cc1` [Example 83, Methyl Z-1-[4-[[2-butyl-5-[(1-butyl-2,5-dioxo-4-imidazolidinylidene)methyl]-1H-imidazol-1-yl]methyl]phenyl]cyclopentanecarboxylate], for which the pIC50 was < 6.00.

As to `CCCCc1ncc(/C=C2/C(=O)N(CCCC)C(=O)N2Cc2csc(C)n2)n1Cc1ccc(C2(C(=O)OC)CCCC2)cc1` [Example 84, Methyl Z-1-[4-[[2-butyl-5-[[1-butyl-[3(2-methyl-4-thiazoly)methyl]-2,5-dioxo-4-imidazolidinylidene]methyl]-1H-imidazol-1-yl]methyl]phenyl]cyclopentane-carboxylate monohydrochloride], the pIC50 is 6.91.

In turn, `CCCCc1ncc(/C=C2/C(=O)N(CCCC)C(=O)N2Cc2csc(C)n2)n1Cc1ccc(C2(C(=O)O)CCCC2)cc1` [Example 85] showed a pIC50 of 8.73. Compared with the last molecule, the pIC50 is 1.82 log units higher.

`CCCCc1ncc(/C=C2\C(=O)N(Cc3csc(C)n3)C(=O)N2CCCC)n1Cc1ccc(C(=O)OC)cc1` [Example 86, Methyl E-4-[[2-butyl-5-[[3-butyl-1-[(2-methyl-4-thiazolyl)methyl]-2,5-dioxo-4-imidazolidinylidene]methyl]-1H-imidazol-1-yl]methyl]benzoate dihydrochloride] had a pIC50 of 8.34. Against the preceding molecule, the pIC50 is 0.39 log units lower.

`CCCCc1ncc(/C=C2/C(=O)NC(=O)N2CCCC)n1Cc1ccc(C(=O)OC)cc1Cl` [Example 87a, Methyl Z-4-[[2-butyl-5-[(3-butyl-2,5-dioxo-4-imidazolidinylidene)methyl]-1H-imidazol-1-yl]methyl]-3-chlorobenzoate]: the pIC50 is 8.00.

Turning to `CCCCc1ncc(/C=C2\C(=O)NC(=O)N2CCCC)n1Cc1ccc(C(=O)OC)cc1Cl` [Example 87b], the pIC50 is 8.14.

The molecule `CCCCc1ncc(/C=C2/C(=O)NC(=O)N2CCCC)n1Cc1ccc(C2(C(=O)OC)CCCCC2)cc1` [Example 88a] gave a pIC50 of 6.56.

The molecule `CCCCc1ncc(/C=C2\C(=O)NC(=O)N2CCCC)n1Cc1ccc(C2(C(=O)OC)CCCCC2)cc1` [Example 88b, Methyl E-1-[4-[[2-butyl-5-[[3-butyl-2,5dioxo-4-imidazolidinylidene]methyl]-1H-imidazol-1-yl]methyl]phenyl]cyclohexanecarboxylate] had a pIC50 of 6.28.

The molecule `CCCCc1ncc(/C=C2/C(=O)N(CC3CC3)C(=O)N2Cc2cccs2)n1Cc1ccc(C(=O)OC)cc1` [Example 89, Methyl Z-4-[[2-butyl-5-[[1-(cyclopropylmethyl)-2,5-dioxo-3-(2-thienylmethyl)-4-imidazolidinylidene]methyl]-1H-imidazol-1-yl]methyl]benzoiate monohydrochloride] showed a negative logarithm of the IC50 (pIC50) of 8.59. Compared with the last molecule, the pIC50 is 2.31 log units higher.

`CCCCc1ncc(/C=C2/C(=O)NC(=O)N2CCCC)n1Cc1ccc(-c2ccccc2-c2nn[nH]n2)cc1` [Example 91, Z-1-Butyl-5-[[2-butyl-3-[[2'-(1H-tetrazol-5-yl)[1,1'-biphenyl]-4-yl]methyl]-3H-imidazol-4-yl]methylene]-2,4-imidazolidinedione] had a pIC50 of 8.86.

`CCCCc1ncc(/C=C2\C(=O)NC(=O)N2CCCC)n1Cc1ccc(-c2ccccc2-c2nn[nH]n2)cc1` [Example 92] showed a pIC50 of 8.57.

`CCCCc1ncc(/C=C2/C(=O)NC(=O)N2C)n1Cc1ccc(-c2ccccc2-c2nnn[nH]2)cc1` [Example 93, Z-5-[[2-butyl-3-[[2'-(1H-tetrazol-5-yl)[1,1 '-biphenyl]-4-yl]methyl]-3H-imidazol-4-yl]methylene]1-methyl-2,4-imidazolidinedione]: the pIC50 was 8.26.
